Test [1] has as its target T1, HCV NS3/4A protease complex, BMS strain (UniProt P27958, species not given/STRAIN_BMS).
T1 construct: other: NS3/4A BMS strain; activity range class; numeric values, unit not given; said of H77 and J4L6S; fused on or other part: A three-lysine solubilising tail at the C-terminus of NS4A; A His tag is implied by the pET21b vector and Ni-NTA purification; Both are printed for the H77 and J4L6S constructs and apply to BMS by inference
As to the kind of experiment: FRET peptide assay to monitor HCV NS3/4A proteolytic activity (BMS strain). The class given is biochemical, Hepatitis C virus (genotype 1a). The settings on record: read-out: HCV Protease (IC50), NS3/4A BMS strain. In outline:
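Inhibition measured by real-time fluorescence increase as the protease cleaves RET S1 FRET depsipeptide (2 μM final). Enzyme: >90% pure BMS-strain (1a) NS3/4A at 2-3 nM final, or 300 pM with 50 μg/ml BSA for potent compounds. Buffer: 50 mM HEPES pH 7.5, 0.15 M NaCl, 0.1% Triton, 15% glycerol, 10 mM βME.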

Test [2] deals with HCV replicon (strain 1b) in HUH-7 cells. In words: HCV replicon FRET assay. The class given is cell-based, Hepatitis C virus.
Setting [3] is: Hepatitis C virus, Huh-7, read-out: HCV Pro Replicon (EC50), HCV replicon cell assay, activity range class.
[4] abbreviates: read-out: HCV Pro Replicon (EC50), HCV replicon cell assay, activity range class.

Where two headings read alike, the source gives them in different places.

T1 sequence (P27958 1027-1657, change not shown, one chain of several): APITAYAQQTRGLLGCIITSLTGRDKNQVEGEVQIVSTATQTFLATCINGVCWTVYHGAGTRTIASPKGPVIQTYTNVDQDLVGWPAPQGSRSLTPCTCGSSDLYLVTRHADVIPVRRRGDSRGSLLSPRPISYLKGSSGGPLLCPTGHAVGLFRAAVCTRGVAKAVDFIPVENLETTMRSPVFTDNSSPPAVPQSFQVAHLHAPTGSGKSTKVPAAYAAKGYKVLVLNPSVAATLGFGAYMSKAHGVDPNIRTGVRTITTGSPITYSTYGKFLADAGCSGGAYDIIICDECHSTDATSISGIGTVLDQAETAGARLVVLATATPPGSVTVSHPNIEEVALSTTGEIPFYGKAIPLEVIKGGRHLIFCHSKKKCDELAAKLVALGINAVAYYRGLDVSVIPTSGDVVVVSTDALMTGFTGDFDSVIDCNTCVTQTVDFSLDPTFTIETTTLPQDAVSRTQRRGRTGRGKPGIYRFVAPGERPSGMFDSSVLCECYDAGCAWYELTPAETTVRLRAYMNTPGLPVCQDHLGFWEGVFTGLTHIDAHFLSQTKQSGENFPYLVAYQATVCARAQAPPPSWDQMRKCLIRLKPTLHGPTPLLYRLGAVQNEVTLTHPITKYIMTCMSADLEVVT

With `C=C[C@@H]1C[C@]1(NC(=O)[C@@H]1C[C@@H](Oc2ncc(OC)c3ccc(Cl)cc23)CN1C(=O)C(C)Nc1n[s+]([O-])nc1OC)C(=O)NS(=O)(=O)C1CC1` (stereo partly shown) [Compound 236], the IC50 in test [1] (activity range class) was over 200 nM. Besides, the EC50 in test [2] (setting [3]) was over 1000 nM.

Turning to `C=C[C@@H]1C[C@]1(NC(=O)[C@@H]1C[C@@H](Oc2ncc(OC)c3ccc(Cl)cc23)CN1C(=O)C(C)Nc1n[s+]([O-])nc1OCC)C(=O)NS(=O)(=O)C1CC1` (stereo partly shown) [Compound 237], in test [1] (activity range class), the IC50 was over 200 nM. Further, in test [2] (setting [3]), the EC50 was over 1000 nM.

On to `C=C[C@@H]1C[C@]1(NC(=O)[C@@H]1C[C@@H](Oc2ncc(OC)c3ccc(Cl)cc23)CN1C(=O)C(C)Nc1nsnc1OC)C(=O)NS(=O)(=O)C1CC1` (stereo partly shown) [Compound 238], for which, in test [1] (activity range class), the IC50 was 20 to 200 nM. The EC50 in test [2] (setting [3]) lay in the range of 100 to 1000 nM.

With `C=C[C@@H]1C[C@]1(NC(=O)[C@@H]1C[C@@H](Oc2ncc(OC)c3ccc(Cl)cc23)CN1C(=O)C(C)Nc1nsnc1OCC)C(=O)NS(=O)(=O)C1CC1` (stereo partly shown) [Compound 239], the IC50 in test [1] (activity range class) was over 200 nM. Also, the EC50 in test [2] (setting [3]) is 100 to 1000 nM.

For the compound `C=C[C@@H]1C[C@]1(NC(=O)[C@@H]1C[C@@H](Oc2ncc(OC)c3ccc(Cl)cc23)CN1C(=O)C(CC)Nc1nsnc1OC)C(=O)NS(=O)(=O)C1CC1` (stereo partly shown) [Compound 240], the IC50 in test [1] (activity range class) is 0.6 to 20 nM. The concentration for a half-maximal effect (EC50) in test [2] (setting [3]) was in the range of 100 to 1000 nM.

With `C=C[C@@H]1C[C@]1(NC(=O)[C@@H]1C[C@@H](Oc2ncc(OC)c3ccc(Cl)cc23)CN1C(=O)C(CC)Nc1nsnc1OC)C(=O)CS(=O)(=O)C1CC1` (stereo partly shown) [Compound 241], in test [1] (activity range class), the IC50 is over 200 nM. Besides, the EC50 in test [2] (setting [3]) is over 1000 nM.

Turning to `C=C[C@@H]1C[C@]1(NC(=O)[C@@H]1C[C@@H](Oc2ncc(OC)c3ccc(Cl)cc23)CN1C(=O)C(Nc1nsnc1OC)C(C)C)C(=O)NS(=O)(=O)C1CC1` (stereo partly shown) [Compound 242], the half-maximal inhibitory concentration (IC50) in test [1] (activity range class) lay in the range of 0.6 to 20 nM. Also, the half-maximal effective concentration (EC50) in test [2] (setting [3]) lay in the range of 3 to 100 nM.

Regarding `C=C[C@@H]1C[C@]1(NC(=O)[C@@H]1C[C@@H](Oc2ncc(OC)c3ccc(Cl)cc23)CN1C(=O)C(Nc1nsnc1OCC)C(C)(C)C)C(=O)NS(=O)(=O)C1CC1` (stereo partly shown) [Compound 243], in test [1] (activity range class), the IC50 was 0.6 to 20 nM. In addition, the EC50 in test [2] (setting [3]) was in the range of 3 to 100 nM.

In the case of `C=CCCCCCC(Nc1ccc(OC)nc1)C(=O)N1C[C@H](Oc2ncc(OC)c3ccc(Cl)cc23)C[C@H]1C(=O)N[C@]1(C(=O)NS(=O)(=O)C2CC2)C[C@H]1C=C` (stereo partly shown) [Compound 410], in test [1] (activity range class), the half-maximal inhibitory concentration (IC50) is over 200 nM. Further, the EC50 in test [2] (setting [4]) was in the range of 3 to 100 nM.

`C=CCCCCCC(Nc1ccc(OC)nc1)C(=O)N1C[C@H](Oc2ncc(OC)c3ccc(Cl)cc23)C[C@H]1C(=O)N[C@]1(C(=O)NS(=O)(=O)C2CC2)C[C@H]1C=C` (stereo partly shown) [Compound 411]: the IC50 in test [1] (activity range class) was over 200 nM. Further, the EC50 in test [2] (setting [4]) was in the range of 100 to 1000 nM.

With “(4R)-4-((7-chloro-4-methoxy-1-isoquinolinyl)oxy)-N-((1R,2S)-1-((cyclopropylsulfonyl)carbamoyl)-2-vinylcyclopropyl)-1-((2R)-2-((4-ethoxy-1,2,5-thiadiazol-3-yl)amino)butanoyl)-L-prolinamide [Compound 233B]”, in test [1] (numeric values, unit inferred), the IC50 was determined as 1300 nM. Moreover, the EC50 in test [2] (HCV replicon cell assay, numeric values, unit inferred, read-out: HCV Pro Replicon (EC50)) stood at 2630 nM.
